The results in this text go back to patent US20070003641A1, “Synergistic pharmaceutical compositions useful in prevention and treatment of beta-amyloid protein-induced disease” (priority 2005, published 2007).

Some results are limits rather than exact numbers.

In test [1] the test system is PC12 cells. The experiment in a line: MTT reduction assay: protection of PC12 cells from βA insult. The test is classed as cell-based. Conditions: 24 hours. As to the method: (§1) The neuronal cell protection by the extract or combination of extracts was determined by observing the differences in the cell viability of βA (both 25-35 and 1-42) treated cells, βA (both 25-35 and 1-42) treated cells further including an extract or a combination of extracts according to the invention, and a DMSO control.
(§2) The degree of βA insult was measured by 3-[4,5-dimethylthiazol-2-yl]-2,5-diphenyltetrazolium bromide (MTT) reduction assay. See Kim et al., Neurosci Lett 303, 57 (2001), Park et al., J Nat Prod 65, 1227 (2002) and Kim et al., Plant Medica 68, 375 (2002). The detection of cell growth or cell death can be determined by observing the conversion of MTT to the colored product, MTT formazan, the concentration of which can be measured colorimetrically at 550 nm. See Kim et al., Neurosci Lett 303, 57 (2001).
(§3) The extract or combination of extracts' ability to protect PC12 cells from βA insult was investigated according to the published procedure. See Kim et al., Neurosci Lett 303, 57 (2001), Park et al., J Nat Prod 65, 1227 (2002) and Kim et al., Plant Medica 68, 375 (2002). For the bioassay, 90 μL of exponentially growing cells (2,000 cells per mL) were plated in 96-well tissue culture plates. Cells were incubated with βA(1-42) (2.0 μg/mL, prepared from a stock solution (1.0 mg/mL in dimethyl sulfoxide (DMSO))) and test compound at various concentrations (50, 10, 2, 0.4, and 0.08 μg/mL) for 24 hours. The final DMSO concentration was less than 1%. The extract or combination of extracts' ability to protect PC12 cells from βA(1-42) insult was determined by measuring the cell's potential to reduce MTT with respect to the treatment of cells with 1% DMSO only and the treatment of cells with […] βA(1-42) and 1% DMSO without the presence of test extract or a combination of extracts. After the incubation of cells in MTT solution (25 μL per well, 1 mg/mL stock solution) for 1 h at 37° C., 100 μL Lysing buffer (50% aqueous dimethylformamide (DMF) and 20% sodium dodecyl sulfate (SDS) at pH 4.7) was added and incubated overnight at 37° C. Optical density of the resulting solutions was colorimetrically determined at 550 nm using a microplate reader. Dose-response curves were prepared and the results were expressed as ED50 values in μg/mL (Table 1). Curcumin and (±)-α-tocopherol (vitamin-E) were used as reference compounds. Bioassay using βA(25-35) was similarly performed. The extract or combination of extracts' ability to protect IMR32 and HUVEC cells from βA insult was also similarly investigated.
(§4) PC12 cells were obtained from the American Type Culture Collection (Rockville, Md.). Cells were routinely cultured on a polystyrene-coated Corning tissue culture plate (Corning, New York, N.Y.). Culture media and supplements were obtained from Life Technologies (Grand Island, N.Y.). Cells were maintained in high glucose Dulbecco's modified Eagle medium, 10% horse serum, 5% fetal calf serum, and 1% penicillin/streptomycin. See Kim et al., Neurosci Lett 303, 57 (2001), Park et al., J Nat Prod 65, 1227 (2002) and Kim et al., Plant Medica 68, 375 (2002). IMR32 human neuroblastoma cells were obtained from the American Type Culture Collection (ATCC). Normal umbilical human vein endothelial (HUVEC) cells were obtained from Clonetics (San Diego, Calif.). Cells were routinely cultured on a polystyrene-coated Corning tissue culture plate (Corning, New York, N.Y.). IMR32 cells were grown in high glucose Dulbecco's Modified Eagle Medium (DMEM), 10% horse serum, 5% fetal calf serum, and 1% penicillin/streptomycin. HUVEC cells were grown in EGM-2 Bullet Kit (Clonetics, San Diego, Calif.). For the bioassay using βA(25-35), 100 μl of exponentially growing IMR32 and HUVEC cells (2,000 and 500 cells per ml, respectively) were plated in 96-well tissue culture plates. A different number of cells per ml was used for the experiment because of the cell size difference of HUVEC cells with respect to IMR32 cells and PC12 cells. […]
For orientation: Tetrazolium assays rely on reduction of a dye to a coloured formazan, in cell work by metabolically active cells.

Test [2] deals with HUVEC cells. Kind of test: MTT reduction assay: protection of HUVEC cells from βA insult. The test is classed as cell-based, human. As to the method: as §1, §2, §3, §4
In test [3] the test system is IMR32 human neuroblastoma cells. Kind of test: MTT reduction assay: protection of IMR32 cells from βA insult. The class given is cell-based. As to the method:
as §1, §2, §3, §4

In test [4] the test system is PC12, IMR32, and HUVEC cells. Kind of test: Cell protection from βA peptide insult, stated in words. The test is classed as cell-based. The procedure:
as §1
The degree of βA insult was measured by 3-[4,5-dimethylthiazol-2-yl]-2,5-diphenyltetrazolium bromide (MTT) reduction assay. See Kim et al., Neurosci Lett 303, 57 (2001), Park et al., J Nat Prod 65, 1227 (2002) and Kim et al., Plant Medica 68, 375 (2002). The detection of cell growth or cell death can be determined by observing the conversion of MTT to the colored product, MTT formazan, the concentration of which can be measured colorimetrically at 550 nm. […]
The extract or combination of extracts' ability to protect PC12 cells from βA insult was investigated according to the published procedure. […] The extract or combination of extracts' ability to protect PC12 cells from βA(1-42) insult was determined by measuring the cell's potential to reduce MTT with respect to the treatment of cells with 1% DMSO only and the treatment of cells with 1.0 μg/mL βA(1-42) and 1% DMSO without the presence of test extract or a combination of extracts. […] Optical density of the resulting solutions was colorimetrically determined at 550 nm using a microplate reader. […]

`CCCCC/C=C/C(=O)CCc1ccc(O)c(OC)c1` [6-shogaol [6S], 6-shogaol]: the “ED50, cell protection against βA insult” value in test [1] (βA(1-42)) amounted to 5.7 µg/mL; in test [1] (βA(25-35)), 5.4 µg/mL; in test [2] (βA(1-42)) it was 5.5 µg/mL; in test [2] (βA(25-35)), 5.9 µg/mL; in test [3] (βA(1-42)) it was 6.1 µg/mL; in test [3] (βA(25-35)) it was 6.3 µg/mL.

(±)-α-tocopherol [reference compound]: the “ED50, cell protection against βA insult” value in test [1] (βA(1-42)), in test [1] (βA(25-35)), in test [2] (βA(1-42)), in test [2] (βA(25-35)), in test [3] (βA(1-42)) and in test [3] (βA(25-35)) was >50 µg/mL throughout.

For `CC(C)c1cc(C=O)c2c(c1O)OC(=O)[C@@]21CCCC(C)(C)[C@@H]1C=O` [RS-8], the “ED50, cell protection against βA insult” value in test [1] (βA(1-42)) was found to be 13.3 µg/mL; in test [1] (βA(25-35)), 11.6 µg/mL; in test [2] (βA(1-42)), 16.7 µg/mL; in test [2] (βA(25-35)), 15.5 µg/mL; in test [3] (βA(1-42)), 14.6 µg/mL; in test [3] (βA(25-35)), 15.2 µg/mL.

In the case of `CCCCCCCCC=CC(=O)CCc1ccc(O)cc1` [(50), [9]-demothoxyshogaol], the “protection of cells from βA peptide insult (in words)” value in test [4] was “effectively protected cells from βA peptide insult”.

In the case of `CCCCCCCCCCC(=O)CCc1ccc(O)c(OC)c1` [(45), [9]-dihydroshogaol], the “protection of cells from βA peptide insult (in words)” value in test [4] is reported as “effectively protected cells from βA peptide insult”.

In the case of `COc1cc(C=CC(=O)CC(=O)C=Cc2ccc(O)c(OC)c2)ccc1O` [curcumin, 1,7-bis(4-hydroxy-3-methoxyphenyl)-1,6-heptadiene-3,5-dione, reference compound], the “ED50, cell protection against βA insult” value was determined as 7.1 µg/mL in test [1] (βA(1-42)); 6.7 µg/mL in test [1] (βA(25-35)); 6.8 µg/mL in test [2] (βA(1-42)); 6.2 µg/mL in test [2] (βA(25-35)); 6.3 µg/mL in test [3] (βA(1-42)); 7.4 µg/mL in test [3] (βA(25-35)).

For the compound `CC(C)c1cc2c(c(O)c1O)[C@@]13CCCC(C)(C)[C@@H]1[C@@H](O)C2OC3=O` [RS-7], the “ED50, cell protection against βA insult” value was found to be 3.1 µg/mL in test [1] (βA(1-42)); 2.3 µg/mL in test [1] (βA(25-35)); 3.5 µg/mL in test [2] (βA(1-42)); 3.2 µg/mL in test [2] (βA(25-35)); 3.4 µg/mL in test [3] (βA(1-42)); 2.9 µg/mL in test [3] (βA(25-35)).

`CC(C)c1cc2c(c(O)c1O)[C@@]13CCCC(C)(C)[C@@H]1[C@H](OC3=O)[C@H]2O` [RS-9]: the “ED50, cell protection against βA insult” value was determined as 35.4 µg/mL in test [1] (βA(1-42)); 33.2 µg/mL in test [1] (βA(25-35)); 34.2 µg/mL in test [2] (βA(1-42)); 31.0 µg/mL in test [2] (βA(25-35)); 35.5 µg/mL in test [3] (βA(1-42)); 38.3 µg/mL in test [3] (βA(25-35)).
